US8877234B2, “Preservatives” (Clariant Finance (BVI) Limited, priority 2005, dated 2014)

Key:
Aspergillus niger = assay: Minimum inhibitory concentration (MIC), agar dilution method, DIN 58940; type: cell-based
Description: (§1) The MIC values were determined in accordance with DIN 58940 by the agar dilution method.

Candida albicans = assay: as above; type: cell-based
Description: as §1

Pseudomonas aeruginosa = assay: as above; type: cell-based
Description: as §1

Staphyloccus aureus = assay: as above; type: cell-based
Description: as §1

[1] = O/W emulsions and W/O emulsions; 0.5% by weight; cited from earlier work
[2] = cited from earlier work

| SMILES | MIC in % (Aspergillus niger) [%] | MIC in % (Candida albicans) [%] | MIC in % (Pseudomonas aeruginosa) [%] | MIC in % (Staphyloccus aureus) [%] | antimicrobial activity [1] | solubility in oil [2] | solubility in water [2] |
| --- | --- | --- | --- | --- | --- | --- | --- |
| Cc1cc(CC(C)CC(C)(C)C)n(O)c(=O)c1.NCCO (centres unmarked) [Octopirox ®, 2-aminoethanol salt of 1-hydroxy-4-methyl-6-(2,4,4-trimethylpentyl)-2(1H)-pyridone] | 0.004 | 0.004 | 0.016 | 0.002 | inadequate | no more than moderate solubility | low solubility |
| OCCOc1ccccc1 [PE, 2-phenoxyethanol] | 0.25 | 0.5 | 0.5 | 0.25 | – | – | – |
